Legend:
[1] = tested on: apelin receptor (APJ) signaling in astrocytes; assay: Western blot of APJ, p-AKT and t-AKT in astrocytes; assay type: cell-based, mouse
Procedure: (§1) To stimulate astrocytes into a reactive state found in aging and neurodegenerative diseases per previous publications (Liddelow et al., 2017; Barbar et al., 2020), a combination of the cytokines TNF-α and IL-1α, and complement factor C1q, were added at 30 ng/mL, 3 ng/mL, and 400 ng/mL, respectively, into astrocyte culture media to make ‘reactive astrocyte cocktail’ (RAC) media. Astrocytes were cultured in RAC media for 24 hours, with or without various concentrations of BGE-105 (10 nM, 50 nM, 250 nM final concentration), (Pyr^1)-Apelin-13 (50 nM; Bachem, Cat. #4029110), BAY-11-7082 (50 μM; Abcam, Cat. #ab141228) or equal volume of vehicle (0.01% DMSO in PBS) (hereafter referred to as ‘RAC treatment’). Cells in Groups 3-6 were treated with RAC for 24 hours, with or without the test compounds (n=4 per group). • Group 1: Control [CON] • Group 2: CON+BGE-105 (50 nM) [CON+105] • Group 3: Reactive control treated with RAC only [RAC] • Group 4: RAC+BGE-105 (50 nM) [RAC+105] • Group 5: RAC+Pyrm-Apelin-13 (50 nM) • Group 6: RAC+BAY-11-7082 (NF-κB inhibitor; 50 μM) [RAC+BAY]
Mice were handled in accordance with principles and guidelines established by the “Guide for the Care and Use of Laboratory Animals” and overseen by the BioAge Lab's Institutional Animal Care and Use Committee (IACUC). Mouse primary astrocytes were isolated and cultured in 0.01% poly-L-lysine coated 6- or 12-well tissue culture plates at 200,000 or 120,000 cells/well, respectively, with astrocyte growth media as previously described in (Lundquist et al. 2022. Knockdown of Astrocytic Monocarboxylate Transporter 4 in the Motor Cortex Leads to Loss of Dendritic Spines and a Deficit in Motor Learning. Mol Neurobiol 59, 1002-1017). […]
(§2) For analysis of astrocyte protein expression, cells were washed after RAC treatment with PBS and lysed with Neuronal Protein Extraction Reagent (Thermo Scientific, Cat. #87792), centrifuged to pellet debris, and supernatant was transferred to a new tube. Total protein concentration was measured by BCA protein assay (Thermo Scientific, Cat. #PI23227).

[2] = tested on: 26-month-old female C57BL/6 mice; assay: Age-dependent BBB permeability model, Evans blue assay; assay type: in vivo, mouse; conditions: 50 mg/kg BID P.O. one week; aged versus aged+BGE-105; p<0.01
Procedure: The mice were handled in accordance with principles and guidelines established by the “Guide for the Care and Use of Laboratory Animals” and overseen by the BioAge Lab's institutional animal care and use committee (IACUC). Mice were housed conventionally in a constant temperature (20-22° C.) and humidity (40%-60%) animal room with a 12/12 h light/dark cycle and free access to food and water.
For assessment of BGE-105 activity, the age-dependent BBB permeability model was established using 26-month-old female C57BL/6 mice. Mice were randomized based on the body weight and body condition scores to two groups (vehicle or BGE-105, n=8). Mice were administered P.O. vehicle (Control) or BGE-105 via P.O. at 50 mg/kg (BID) for one week (7 days). See FIG. 4B for a schematic of the protocol. The BBB permeability was measured via Evans blue assay. Mice were intravenously injected with Evans Blue (2%, 75 ul/30 g BW). […]
Frozen olfactory bulb and hippocampus were placed in 200 μl of extraction buffer (50% trichloroacetic acid in formamide) for 24 hours. […] Endpoint fluorescence was recorded (620 nm excitation, 680 nm emission) with a SpectraMax iD5 (Molecular Devices), normalized to tissue weight, and relative treatment-related change in fluorescence (a measure of blood-brain barrier leakage) was calculated compared to untreated aged mice.

[3] = tested on: aged mice with TBI; assay: Traumatic brain injury (TBI) model in aged mice, controlled cortical impact; assay type: in vivo, mouse; conditions: given orally before and/or after controlled cortical impact
From the text: This study assessed the effects of BGE-105 on mitigating the effects of CNS damage and inflammation, and accelerating functional recovery, in a mouse model of TBI.
BGE-105 is given orally to aged mice at various potential doses for a period of time before and/or after controlled cortical impact (model of TBI in mice); during the experimental period, mice undergo various behavioral assessments to understand whether BGE-105 treatment affected motor and cognitive functions known to be impaired by TBI. After, the brains of mice are analyzed for neuroinflammatory markers by a variety of histological and biochemical methods

[4] = tested on: NF-κB activation and IκBα phosphorylation in astrocytes; assay: Western blot of NF-κB p65 and p-IκBα/t-IκBα in astrocytes; assay type: cell-based, mouse
Procedure: as §1, with “Cells in Groups 3-6 were treated with RAC for 24 hours, with or without the test compounds (n=4 per group). • Group 1: Control [CON] • Group 2: CON+BGE-105 (50 nM) [CON+105] • Group 3: Reactive control treated with RAC only [RAC] • Group 4: RAC+BGE-105 (50 nM) [RAC+105] • Group 5: RAC+Pyrm-Apelin-13 (50 nM) • Group 6: RAC+BAY-11-7082 (NF-κB inhibitor; 50 μM) [RAC+BAY]” left out
as §2

[5] = RAC+BGE-105 [50 nM] versus CON and RAC

SMILES: COc1cccc(OC)c1-n1c(NS(=O)(=O)[C@@H](C)[C@H](C)c2ncc(C)cn2)nnc1-c1cncc(C)c1 [BGE-105, (2S,3R)—N-(4-(2,6-dimethoxyphenyl)-5-(5-methyl-3-pyridinyl)-4H-1,2,4-triazol-3-yl)-3-(5-methyl-2-pyrimidinyl)-2-butanesulfonamide]
- increase of p-AKT expression level, as compared to t-AKT, normalized with β-actin ([1]; RAC+BGE-105 [50 nM]): about 2 folds
- APJ protein expression normalized with β-actin [1, 5]: No significant fold change
- t-AKT expression [1, 5]: remained comparable
- change of age-induced increase in BBB permeability in the OB [2]: −28%
- neuroinflammatory markers and neuro-inflammation [3]: decrease of neuroinflammatory markers
- ratio of p-IκBα/tIκBα expression normalized to β-actin ([4]; RAC+BGE105 (50 nM) versus RAC): significantly reduced
- NF-κB p65 expression normalized to β-actin ([4]; RAC+BGE-105 (50 nM) versus RAC): significantly reduced
